Results published in ChEMBL document CHEMBL3217449 (Medchemcomm, 2010).
In brackets after ≈: the same amount, converted by molar mass.

Assays:
[1] = molecular target: Serine/threonine-protein kinase mTOR (Homo sapiens, UniProt P42345)
[2] = Kinetic solubility of the compound; assay type: physicochemical; conditions: read-out: Kinetic_solubility
[3] = molecular target: Phosphatidylinositol 4,5-bisphosphate 3-kinase catalytic subunit alpha isoform (Mus musculus, UniProt P42337); assay: Inhibition of mouse PI3K alpha expressed in insect cells coexpressing p85 subunit assessed as PI(3,4,5)P3 formation using PI(4,5)P2 as substrate by measuring displacement of TAMRA-labeled PI(3,4,5)P3 from Grip1 PH domain after 35 mins by ligand displacement fluorescence polarization assay
[4] = Metabolic stability in human liver microsomes assessed as extraction ratio; assay type: ADME; conditions: read-out: ERH
Rattus norvegicus [5] = assay: Drug metabolism in iv dosed rat plasma assessed as 2-amino-8-((trans)-4-hydroxycyclohexyl)-6-(6-methoxypyridin-3-yl)-4-methylpyrido[2,3-d]pyrimidin-7(8H)-one level; assay type: ADME, organism-based; conditions: in vivo
[6] = Inhibition of AKT phosphorylation at S473 in human BT20 cells after 1 hr by sandwich ELISA; assay type: cell-based; conditions: BT-20, 1 h
Mus musculus [7] = assay: Drug metabolism in po dosed mouse plasma assessed as 2-amino-8-((trans)-4-hydroxycyclohexyl)-6-(6-methoxypyridin-3-yl)-4-methylpyrido[2,3-d]pyrimidin-7(8H)-one level; assay type: ADME, organism-based; conditions: in vivo
[8] = Clearance in rat at 2 mg/kg, iv and 5 mg/kg, po by LC-MS/MS analysis; assay type: ADME, organism-based; conditions: in vivo
[9] = Volume of distribution at steady state in rat at 2 mg/kg, iv and 5 mg/kg, po by LC-MS/MS analysis; assay type: ADME, organism-based; conditions: in vivo, read-out: Vdss
[10] = Half life in rat at 2 mg/kg, iv and 5 mg/kg, po by LC-MS/MS analysis; assay type: ADME, organism-based; conditions: in vivo
[11] = Inhibition of AKT phosphorylation at S473 in human SKOV3 cells after 1 hr by sandwich ELISA; assay type: cell-based; conditions: SK-OV-3, 1 h
Rattus norvegicus [12] = assay: Unbound clearance in rat at 2 mg/kg, iv and 5 mg/kg, po by LC-MS/MS analysis; assay type: ADME, organism-based; conditions: in vivo
[13] = Unbound fraction in rat plasma at 2 mg/kg, iv and 5 mg/kg, po by LC-MS/MS analysis; assay type: ADME, organism-based
Rattus norvegicus [14] = assay: Drug metabolism in iv dosed rat plasma assessed as 2-amino-8-((cis)-4-hydroxycyclohexyl)-6-(6-methoxypyridin-3-yl)-4-methylpyrido[2,3-d]pyrimidin-7(8H)-one level; assay type: ADME, organism-based; conditions: in vivo
Mus musculus [15] = assay: Drug metabolism in po dosed mouse plasma assessed as 2-amino-8-((cis)-4-hydroxycyclohexyl)-6-(6-methoxypyridin-3-yl)-4-methylpyrido[2,3-d]pyrimidin-7(8H)-one level; assay type: ADME, organism-based; conditions: in vivo
[16] = Drug absorption in rat; assay type: ADME, organism-based; conditions: in vivo, read-out: Drug absorption

Phosphatidylinositol 4,5-bisphosphate 3-kinase catalytic subunit alpha isoform, sequence (P42337 whole entry, the tested form may be a part, canonical isoform): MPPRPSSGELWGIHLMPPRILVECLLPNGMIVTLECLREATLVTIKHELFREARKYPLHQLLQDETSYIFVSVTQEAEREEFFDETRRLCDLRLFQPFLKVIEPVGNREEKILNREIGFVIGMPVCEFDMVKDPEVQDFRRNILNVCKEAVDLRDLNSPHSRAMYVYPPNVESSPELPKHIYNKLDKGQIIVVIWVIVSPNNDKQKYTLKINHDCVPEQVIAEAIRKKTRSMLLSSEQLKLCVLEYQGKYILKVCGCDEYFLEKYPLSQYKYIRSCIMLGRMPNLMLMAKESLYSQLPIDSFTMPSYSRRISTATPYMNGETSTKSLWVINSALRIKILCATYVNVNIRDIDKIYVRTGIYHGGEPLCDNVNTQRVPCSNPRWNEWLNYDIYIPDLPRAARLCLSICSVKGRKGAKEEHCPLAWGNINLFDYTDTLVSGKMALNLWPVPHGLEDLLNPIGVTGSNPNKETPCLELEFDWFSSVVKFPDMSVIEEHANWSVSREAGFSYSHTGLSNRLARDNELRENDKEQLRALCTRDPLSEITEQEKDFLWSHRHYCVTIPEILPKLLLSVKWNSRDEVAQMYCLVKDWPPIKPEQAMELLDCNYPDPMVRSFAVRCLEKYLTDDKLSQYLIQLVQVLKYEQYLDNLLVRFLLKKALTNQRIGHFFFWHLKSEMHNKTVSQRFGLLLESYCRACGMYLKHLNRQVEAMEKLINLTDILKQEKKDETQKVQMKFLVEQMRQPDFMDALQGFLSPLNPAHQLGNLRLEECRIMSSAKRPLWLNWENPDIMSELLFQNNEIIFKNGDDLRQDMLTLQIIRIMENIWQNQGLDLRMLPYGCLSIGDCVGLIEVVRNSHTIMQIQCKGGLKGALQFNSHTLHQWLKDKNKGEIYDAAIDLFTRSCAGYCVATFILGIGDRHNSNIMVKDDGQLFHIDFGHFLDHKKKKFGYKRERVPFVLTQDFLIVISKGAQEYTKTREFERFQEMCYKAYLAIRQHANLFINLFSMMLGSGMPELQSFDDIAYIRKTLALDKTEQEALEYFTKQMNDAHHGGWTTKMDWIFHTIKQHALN

Row | Structure (SMILES) | Ki [1] [nM] | solubility kinetic [2] [µM] | Ki [3] [nM] | hepatic extraction ratio [4] | IC50 [6] [nM] | also measured
1 | COc1ccc(-c2cc3c(C)nc(N)nc3n(C3CCOC3)c2=O)cn1 (stereo not given) | 150 | 144 (≈ 50.9 µg/mL) | 6.6 | < 0.26 | – | –
2 | Cc1nc(N)nc2c1cc(-c1cccc(CO)c1)c(=O)n2C1CCCC1 | 82 | – | 1.2 | – | – | –
3 | COc1ccc(-c2cc3c(C)nc(N)nc3n([C@H]3CC[C@@H](O)CC3)c2=O)cn1 | 90 | 60 (≈ 22.9 µg/mL) | 3 | < 0.26 | 22 | Stability (Rattus norvegicus [5]): Unstable; Stability (Mus musculus [7]): Unstable
4 | COc1ccc(-c2cc3c(C)nc(N)nc3n(C3CCOCC3)c2=O)cn1 | 110 | 40 (≈ 14.7 µg/mL) | 3.6 | < 0.26 | – | –
5 | COc1ccc(-c2cc3c(C)nc(N)nc3n([C@H]3CC[C@H](OCCO)CC3)c2=O)cn1 [PF-04691502] | – | 14 (≈ 5.96 µg/mL) | – | – | 13 | clearance [8]: 5.2 mL/min/kg; Vd [9]: 1.39 L/kg; half-life [10]: 3.1 h; IC50 [11]: 7.4 nM; CL free (Rattus norvegicus [12]): 25.9 mL/min/kg; fraction unbound [13]: 0.202
6 | COc1ccc(-c2cc3c(C)nc(N)nc3n([C@H]3CC[C@H](O)CC3)c2=O)cn1 | 17 | 16 (≈ 6.1 µg/mL) | 0.9 | < 0.25 | 12 | Stability (Rattus norvegicus [14]): Unstable; Stability (Mus musculus [15]): Unstable
7 | CNc1nc(C)c2cc(-c3ccc(OC)nc3)c(=O)n(C3CCCC3)c2n1 | 700 | – | 1.1 | – | – | –
8 | CNc1nc(C)c2cc(-c3cccc(CO)c3)c(=O)n(C3CCCC3)c2n1 | 840 | 65 (≈ 23.7 µg/mL) | 1.4 | 0.68 | 15 | –
9 | COc1ccc(-c2cc3c(C)nc(N)nc3n(C3CCCC3)c2=O)cn1 | 200 | 3.9 (≈ 1.37 µg/mL) | 1.4 | < 0.25 | 16 | Fa [16]: 28%
